Source: PMC3440086, “Profiling Environmental Chemicals for Activity in the Antioxidant Response Element Signaling Pathway Using a High Throughput Screening Approach” (Environmental Health Perspectives, 2012)
“Also recorded” adds a separate entry of the source. Where two headings read alike, the source gives them in different places.

Columns and labels:
[1] = system: Nrf2-dependent ARE transcriptional activity; test: ARE-luc luciferase reporter gene assay in HepG2 cells (qHTS); format: cell-based; conditions: for Emax: read-out: ARE-luc Efficacy
[2] = system: antioxidant response element (ARE) signaling pathway; test: ARE-bla β-lactamase reporter gene assay in HepG2 cells (qHTS); format: cell-based, human; conditions: for Emax: read-out: ARE-bla Efficacy
mutated ARE = format: cell-based; conditions: for ARE-bla mutant Efficacy: normalized to DMSO (0%) and ARE-bla maximal β-napthoflavone response (100%)
[3] = Homo sapiens, HepG2, confirmation/follow-up studies, activation of ARE reporter as % of positive control (β-napthoflavone)
[4] = Homo sapiens, confirmation/follow-up studies, HepG2, 16 hr exposure, mean ± SD, read-out: ARE-luc EC50
[5] = Homo sapiens, confirmation/follow-up studies, HepG2, 16 hr exposure, mean ± SD, read-out: ARE-bla EC50
[6] = confirmation/follow-up studies, HepG2, mean ± SD
[7] = confirmation/follow-up studies, HepG2, 16 hr exposure, mean ± SD
[8] = primary qHTS screening, 0.59 nM to 92 µM
[9] = confirmation/follow-up studies, HepG2, 16 hr exposure, mean ± SD, read-out: ARE-luc EC50
[10] = confirmation/follow-up studies, activation of ARE reporter as % of positive control (β-napthoflavone)
[11] = confirmation/follow-up studies, HepG2, 16 hr exposure, mean ± SD, read-out: ARE-bla EC50
[12] = confirmation/follow-up studies, […]
[13] = Homo sapiens, HepG2, confirmation/follow-up studies, […]
[14] = follow-up studies, up to 46 µM, listed as 3-dimethylaminophenol

Compound `O=c1cc(-c2ccccc2)oc2ccc3ccccc3c12` [β-Napthoflavone, reference compound] has an EC50 ([1]; primary screening, positive control across all 18 plates, read-out: average EC50 in ARE-luc assay) of 5.2 µM and an EC50 ([2]; primary screening, positive control across all 18 plates, read-out: average EC50 in ARE-bla assay) of 2.1 µM.

`O=c1cc(-c2ccccc2)oc2ccccc12` [Flavone] was tested, and the Emax [1, 3] was 47%, the EC50 [1, 4] was 7.6 ± 0.5 µM and the Emax [2, 3] was 80%. For the same compound, the EC50 [2, 5] was 2.4 ± 0.6 µM and the “ARE-bla mutant IC50” value (mutated ARE; [6]) was “inactive”.

In the case of `Nc1cc(Cl)cc(Cl)c1` [3,5-Dichloroaniline], the “ARE-luc EC50” value [1, 7] is reported as “inactive”, the “ARE-bla EC50” value [2, 7] is reported as “inactive” and the “ARE-bla mutant IC50” value (mutated ARE; [6]) is reported as “inactive”.

`O=Nc1ccc(Nc2ccccc2)cc1` [p-Nitrosodiphenylamine] was tested, and the “ARE-luc Efficacy” value [1] was 71, the EC50 ([1]; read-out: ARE-luc EC50) was 21.7 ± 3.7 µM and the “ARE-bla Efficacy” value [2] was 31. The EC50 ([2]; read-out: ARE-bla EC50) was 9.7 ± 4.1 µM and the “ARE-bla mutant IC50” value (mutated ARE) was “inactive”.

`COc1cc(/C=C/C(=O)CC(=O)/C=C/c2ccc(O)c(OC)c2)ccc1O` [Curcumin] was tested, and the Emax [1, 3] was 165%, the EC50 [1, 4] was 10.8 ± 0.7 µM and the “activity in ARE-luc assay (words)” value [1, 8] was “high-quality active”. The Emax [2, 3] was 21%, the EC50 [2, 5] was 3.2 ± 3.2 µM and the “activity in ARE-bla assay (words)” value [2, 8] was “high-quality active”. For the same compound, the “ARE-bla mutant IC50” value (mutated ARE; [6]) was “inactive”.

For `O=C1c2ccccc2C(=O)C1c1ccc2ccccc2n1` [D & C Yellow II], the EC50 [1, 9] was 1.2 ± 0.7 µM, the “ARE-luc Efficacy” value [1, 10] was 185% and the EC50 [2, 11] was 0.7 ± 0.1 µM. The “ARE-bla Efficacy” value [2, 10] was 88%, the “ARE-bla mutant Efficacy” value (mutated ARE; confirmation/follow-up studies) was 48% and the “activity in ARE-bla-mut assay (words)” value (mutated ARE; follow-up studies, up to 46 µM) was “may exhibit autofluorescence”.

In the case of `C[C@H](CCC(=O)O)[C@H]1CC[C@H]2[C@@H]3CC[C@@H]4C[C@H](O)CC[C@]4(C)[C@H]3CC[C@]12C` [Lithocholic acid], the Emax [1, 3] is reported as 61%, the EC50 [1, 4] is reported as 21.9 ± 8.2 µM and the “activity in ARE-luc assay (words)” value ([1]; follow-up studies, up to 46 µM) is reported as “active”. The “activity in ARE-luc assay (words)” value [1, 8] was “inactive”, the Emax [2, 3] was 65% and the EC50 [2, 5] was 17.7 ± 5.7 µM. The “ARE-bla mutant IC50” value (mutated ARE) was “inactive”.

For `CN(C)C(=S)SSC(=S)N(C)C` [Tetramethylthiuram disulfide], the EC50 [1, 9] was 30.6 ± 5.2 µM, the “ARE-luc Efficacy” value [1, 12] was 265% and the EC50 [2, 11] was 17.2 ± 4.9 µM. For the same compound, the “ARE-bla Efficacy” value [2, 12] was 35% and the “ARE-bla mutant IC50” value (mutated ARE; [6]) was “inactive”.

For `CCOCN(C(=O)CCl)c1c(C)cccc1CC` [Acetochlor], the Emax [1, 3] was 78%, the EC50 [1, 4] was 21.9 ± 5.3 µM and the “activity in ARE-luc assay (words)” value ([1]; follow-up studies, up to 46 µM) was “active; also recorded: demonstrated activity”. The “activity in ARE-luc assay (words)” value [1, 8] was “high-quality active”, the Emax [2, 3] was 86% and the EC50 [2, 5] was 4.7 ± 1.6 µM. The “activity in ARE-bla assay (words)” value ([2]; follow-up studies, up to 46 µM) was “active; also recorded: demonstrated activity”, the “activity in ARE-bla assay (words)” value [2, 8] was “high-quality active” and the “ARE-bla mutant IC50” value (mutated ARE; [6]) was “inactive”.

In the case of `CN1CSC(=S)N(C)C1` [Dazomet], the Emax [1, 13] is reported as 22%, the EC50 [1, 4] is reported as 26.6 ± 2.2 µM and the Emax [2, 13] is reported as 55%. The EC50 [2, 5] was 20.1 ± 6.6 µM and the “ARE-bla mutant IC50” value (mutated ARE; [6]) was “inactive”.

`[Cd+2].[Cl-].[Cl-]` [Cadmium II chloride] was tested, and the “ARE-luc Efficacy” value [1] was 446, the EC50 ([1]; read-out: ARE-luc EC50) was 1.1 ± 0.1 µM and the “ARE-bla EC50” value [2] was “inactive”. For the same compound, the “ARE-bla mutant IC50” value (mutated ARE) was “inactive”.

`CN(C)c1cccc(O)c1` [3-Dimethylaminophenol] was tested, and the “activity in ARE-luc assay (words)” value ([1]; follow-up studies, up to 46 µM) was “inactive in all assays”, the “activity in ARE-luc assay (words)” value [1, 14] was “inactive” and the “activity in ARE-bla assay (words)” value ([2]; follow-up studies, up to 46 µM) was “inactive in all assays”. The “activity in ARE-bla assay (words)” value [2, 14] was “inactive”, the “ARE-bla mutant IC50” value (mutated ARE; [6]) was “inactive” and the “activity in ARE-bla-mut assay (words)” value (mutated ARE; follow-up studies, up to 46 µM) was “inactive in all assays”.

`Nc1ccc(Cl)cc1N` [4-Chloro-o-phenylenediamine] was tested, and the Emax [1, 13] was 111%, the EC50 [1, 4] was 27.2 ± 3.7 µM and the “activity in ARE-bla assay (words)” value ([2]; follow-up studies, up to 46 µM) was “inactive”. For the same compound, the “activity in ARE-bla assay (words)” value [2, 8] was “showed activity” and the “ARE-bla mutant IC50” value (mutated ARE; [6]) was “inactive”.

`O=c1n(CC2CO2)c(=O)n(CC2CO2)c(=O)n1CC1CO1` (centres unmarked) [Teroxironum] was tested, and the “ARE-luc Efficacy” value [1] was 1541, the EC50 ([1]; read-out: ARE-luc EC50) was 27.1 ± 1.8 µM and the “ARE-bla Efficacy” value [2] was 119. The EC50 ([2]; read-out: ARE-bla EC50) was 5.9 ± 1.9 µM and the “ARE-bla mutant IC50” value (mutated ARE) was “inactive”.

`C[C@H](CCC(=O)[O-])[C@H]1CC[C@H]2[C@@H]3[C@H](O)C[C@@H]4C[C@H](O)CC[C@]4(C)[C@H]3C[C@H](O)[C@]12C.[Na+]` [Sodium Cholate] was tested, and the “ARE-luc EC50” value [1, 7] was “inactive”, the “ARE-bla EC50” value [2, 7] was “inactive” and the “ARE-bla mutant IC50” value (mutated ARE; [6]) was “inactive”.

`c1ccc2c(c1)-c1cccc3c1c-2cc1ccccc13` [Benzo(b)fluoranthene] was tested, and the Emax [1, 13] was 19%, the EC50 [1, 4] was 1.3 ± 1 µM and the Emax [2, 13] was 136%. The EC50 [2, 5] was 5.9 ± 3 µM, the “activity in ARE-bla-mut assay (words)” value (mutated ARE) was “may exhibit autofluorescence” and the “ARE-bla mutant Efficacy” value (mutated ARE; confirmation/follow-up studies) was 134%.
